Test results reported in US12559750B2, “Methods and compositions for treatment of polycystic kidney disease” (Regulus Therapeutics Inc., priority 2021, dated 2026).

Tests used:
AMPA-R = test: [3H]AMPA radioligand binding assay on rat brain synaptic membranes; settings: for % Inhibition @ Concentration 100 uM: Table 8 (3′-terminal nucleobase/sugar variants); for % Inhibition @ Concentration 0.1 uM: Table 8, 0.1 uM; for % Inhibition @ Concentration 1 uM: Table 8, 1 uM; for % Inhibition @ Concentration 10 uM: Table 8, 10 uM;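 as to all read-outs here: competition binding in which test compounds at rising concentrations displace [3H]AMPA from AMPA-R on rat brain synaptic membranes, with reduced bound radioligand as read-out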
Procedure: The activity of anti-miR-17 compounds was evaluated in a radioligand binding assay which measured the binding of the [^3H] AMPA ligand to the AMPA-R present on rat brain synaptic membranes, in the presence of increasing concentrations of anti-miR-17 compound, anti-miR-17 compounds with affinity for the AMPA-R will bind to and compete with the binding of the [^3H] AMPA ligand.
5.0 nM of the ligand [^3H] AMPA, 1.0 mM of the non-specific ligand L-Glutamic acid, and anti-miR compound at uM concentrations were incubated with synaptic membranes prepared from Wistar rat cerebral cortex for 90 minutes.
The compounds were tested in the radioligand binding assay described herein, to determine the ability of the anti-miR-17 compounds to and compete with the binding of the [3H] AMPA ligand.

AMPA-R (GluA1/GluA4) = molecular target: T1, AMPA-R (GluA1/GluA4) (Homo sapiens, UniProt P42261+P48058); test: Manual whole-cell patch clamp, ChanTest GluA1/GluA4 EZCells; format: cell-based
T1 construct: host or cells: ChanTest GluA1/GluA4 EZCells
T1 sequence (P42261 19-906): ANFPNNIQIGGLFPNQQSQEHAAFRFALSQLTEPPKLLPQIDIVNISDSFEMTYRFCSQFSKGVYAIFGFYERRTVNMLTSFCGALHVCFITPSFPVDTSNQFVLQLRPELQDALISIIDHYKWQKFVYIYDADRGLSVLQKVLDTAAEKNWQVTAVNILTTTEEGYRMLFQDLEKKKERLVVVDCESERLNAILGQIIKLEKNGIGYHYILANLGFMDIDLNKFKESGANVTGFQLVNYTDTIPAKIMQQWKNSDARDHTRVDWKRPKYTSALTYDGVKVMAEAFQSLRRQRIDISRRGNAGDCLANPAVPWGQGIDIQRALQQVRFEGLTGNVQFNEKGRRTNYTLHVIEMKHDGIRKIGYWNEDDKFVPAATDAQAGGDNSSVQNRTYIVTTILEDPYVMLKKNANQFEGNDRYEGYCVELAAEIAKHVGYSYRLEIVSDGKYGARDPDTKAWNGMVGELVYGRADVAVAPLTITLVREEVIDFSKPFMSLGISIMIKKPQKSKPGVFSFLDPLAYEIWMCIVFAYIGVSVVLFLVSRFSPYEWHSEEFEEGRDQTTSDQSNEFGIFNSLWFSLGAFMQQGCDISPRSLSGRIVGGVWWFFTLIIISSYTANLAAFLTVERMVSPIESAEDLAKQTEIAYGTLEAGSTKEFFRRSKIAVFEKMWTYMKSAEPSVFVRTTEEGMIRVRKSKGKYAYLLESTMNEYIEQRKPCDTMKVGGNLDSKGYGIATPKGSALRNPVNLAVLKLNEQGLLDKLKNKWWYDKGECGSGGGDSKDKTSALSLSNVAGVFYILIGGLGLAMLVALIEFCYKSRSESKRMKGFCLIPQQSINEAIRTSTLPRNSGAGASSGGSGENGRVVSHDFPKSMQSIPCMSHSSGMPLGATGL
T1 sequence (P48058 21-902): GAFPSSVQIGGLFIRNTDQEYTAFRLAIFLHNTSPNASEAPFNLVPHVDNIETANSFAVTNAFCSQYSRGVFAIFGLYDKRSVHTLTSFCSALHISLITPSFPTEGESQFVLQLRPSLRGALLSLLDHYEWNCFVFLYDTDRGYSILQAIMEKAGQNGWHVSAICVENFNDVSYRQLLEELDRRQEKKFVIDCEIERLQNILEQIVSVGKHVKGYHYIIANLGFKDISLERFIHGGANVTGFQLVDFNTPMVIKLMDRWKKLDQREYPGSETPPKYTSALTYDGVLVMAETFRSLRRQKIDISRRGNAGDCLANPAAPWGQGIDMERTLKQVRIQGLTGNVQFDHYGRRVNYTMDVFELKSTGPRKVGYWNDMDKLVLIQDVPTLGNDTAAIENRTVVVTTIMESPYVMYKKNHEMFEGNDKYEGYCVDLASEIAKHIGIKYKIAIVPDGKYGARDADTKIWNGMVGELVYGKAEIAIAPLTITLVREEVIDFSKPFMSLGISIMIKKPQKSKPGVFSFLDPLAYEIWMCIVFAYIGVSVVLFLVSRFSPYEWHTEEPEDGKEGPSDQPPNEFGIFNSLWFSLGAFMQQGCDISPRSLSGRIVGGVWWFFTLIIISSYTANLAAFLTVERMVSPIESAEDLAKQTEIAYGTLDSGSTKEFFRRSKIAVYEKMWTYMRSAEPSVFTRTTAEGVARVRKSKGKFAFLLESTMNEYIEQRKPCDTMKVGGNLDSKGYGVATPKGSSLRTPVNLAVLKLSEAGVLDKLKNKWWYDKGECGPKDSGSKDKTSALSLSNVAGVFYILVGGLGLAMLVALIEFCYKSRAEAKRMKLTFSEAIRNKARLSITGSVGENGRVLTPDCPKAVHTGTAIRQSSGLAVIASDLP
Procedure: To evaluate functional antagonism of anti-miR-17 oligonucleotides towards the AMPA-R, certain oligonucleotides were tested using the manual whole-cell patch clamp technique, which records membrane currents as a measure of AMPA-R activity.
Manual whole-cell patch clamp studies were performed by Metrion Biosciences (Cambridge, UK). Whole-cell voltage clamp experiments were performed at room temperature (18-21° C.) using an EPC10 patch clamp amplifier using Patchmaster software (HEKA Elektronik). Glass patch pipettes were fabricated from borosilicate glass capillaries (Harvard Apparatus) to resistances between 1.4 and 2.5 MΩ. Membrane currents were recorded using the whole-cell patch clamp technique. ChanTest® GluA1/GluA4 EZCells were clamped at a holding potential of −80 mV and membrane currents elicited by 10 μM(S)-AMPA delivered using a VC38 perfusion system (ALA Scientific Instruments). The […] current amplitude values were measured with each application of 10 μM(S)-AMPA. The fractional change of current amplitude produced by each concentration of compound was calculated relative to the control current (pre-compound) and expressed as percentage change (% inhibition) for each cell. RGLS4326 was tested in a separate study from all other compounds in Table 6.

miR-17 [1] = test: miR-17 luciferase sensor assay in HeLa cells; format: cell-based; settings: for EC50: HeLa cells, 18- to 24-hour transfection
Procedure: The in vitro potency of certain compounds was evaluated using a miR-17 luciferase sensor assay which uses a luciferase reporter vector for miR-17, with two fully complementary miR-17 binding sites in tandem in the 3′-UTR of the luciferase gene. HeLa cells were co-transfected with the luciferase reporter vector and an exogenous miR-17-expression vector that acted to repress the luciferase signal.

miR-17 [2] = test: miR-17 PD-Sig in mouse kidney cell lines; format: cell-based
Procedure: The activity of certain compounds was evaluated using a mouse miR-17 Pharmacodynamic-Signature (miR-17 PD-Sig), which consists of the expression of 18 unique miR-17 target genes normalized by six reference housekeeping genes, to provide an unbiased and comprehensive assessment of miR-17 activity. The mouse miR-17 PD-Sig score was the calculated average of the 18 genes' individual log 2 fold changes (normalized by six housekeeping genes) compared to mock transfection (Lee et al., Nat. Commun., 2019, 10, 4148).
The PD-Sig for RGLS4326 in mIMCD3 cells (77.2, indicated by “*”) was not generated in this experiment; the value in Table 14 is that reported by Lee et al., Nat. Commun., 2019, 10, 4148. Blank cells in the table indicate that a compound was not tested in a particular cell line.

miR-17 [3] = test: miR-17 PD-Sig in human kidney cell lines; format: cell-based
miR-17 [4] = test: microRNA polysome shift assay (miPSA) in kidney of wild type mice; format: in vivo, mouse; parameters: scale not given here; settings: seven days later
Procedure: In vivo potency was evaluated using the microRNA polysome shift assay (miPSA). This assay was used to determine the extent to which compounds directly engage the miR-17 target in the kidney in normal and PKD mice. The miPSA relies on the principle that active miRNAs bind to their mRNA targets in translationally active high molecular weight (HMW) polysomes, whereas the inhibited miRNAs reside in the low MW (LMW) polysomes. Treatment with anti-miR results in a shift of the microRNA from HMW polysomes to LMW polysomes. Thus, the miPSA provides a direct measurement of microRNA target engagement by a complementary anti-miR (Androsavich et al., Nucleic Acids Research, 2015, 44: e13).
Wild type mice were administered a single dose of 0.3 mg/kg, 3 mg/kg, or 30 mg/kg. Kidney tissue was collected seven days later and subjected to the miPSA. The mean displacement score for each treatment is shown in Table 15 (PBS, n=17; RGLS4326 30 mg/kg, n=10; all other treatments, n=4-5). The tested oligonucleotides displaced miR-17 from translationally active polysome (as measured by miPSA) in normal mouse kidneys.

[5] = tested on: KspCre/Pkd1F/RC (Pkd1-F/RC) mice; test: Efficacy in Pkd1-F/RC mouse model of ADPKD; format: in vivo; settings: 20 mg/kg SC on days 8, 10, 12, 15 of age; for Mean BW/KW Ratio / Mean Serum BUN / Mean Serum Creatine: sacrificed at 18 days
Procedure: Mice were sacrificed at 18 days of age, and kidney weight, body weight, cyst index, serum creatinine level, and blood urea nitrogen (BUN) level were measured. BUN level is a marker of kidney function. A higher BUN level correlates with poorer kidney function, thus a reduction in BUN level is an indicator of reduced kidney injury and damage and improved function. Statistical significance was calculated by one-way ANOVA with Dunnett's multiple correction.

mice = test: High-dose subcutaneous mouse toxicity studies, CNS-related findings; settings: for CNS toxicity in high-dose mouse toxicity studies: single 2000 mg/kg and/or escalating doses 100, 450, 2000 mg/kg, in words
Procedure: Each compound was tested in a single dose at 2000 mg/kg, and at escalating doses (100, 450, and 2000 mg/kg).

AMPA glutamate receptor = test: Off-target panel, ligand binding (RGLS4326)
Procedure: To identify potential candidates for off-target pharmacology, a panel of 174 targets including G-protein coupled receptors, transporters, ion channels, nuclear receptors, and cytokine receptors was evaluated in vitro for possible interactions with RGLS4326. […] AMPA receptors are ion channels on excitatory synapses in the CNS that mediate fast excitatory neurotransmission and, therefore, are key components of all neuronal networks. Such an interaction with the AMPA receptor could explain the CNS-mediated findings observed at high doses of RGLS4326 in nonclinical toxicology models.

Sequence | IC50 (AMPA-R; Experiment #2) | % Inhibition @ 0.1 uM (AMPA-R; Experiment #2, 0.1 uM) | % Inhibition @ 1 uM (AMPA-R; Experiment #2, 1 uM) | % Inhibition @ 10 uM (AMPA-R; Experiment #2, 10 uM) | % Inhibition @ 100 uM (AMPA-R; Experiment #2, 100 uM) | IC50 (AMPA-R; Table 8) | % Inhibition @ Concentration 100 uM (AMPA-R) | % Inhibition @ Concentration 0.1 uM (AMPA-R) | % Inhibition @ Concentration 1 uM (AMPA-R) | % Inhibition @ Concentration 10 uM (AMPA-R) | % Inhibition on membrane currents evoked with 10 uM (s)-AMPA (Mean ± SD) (AMPA-R (GluA1/GluA4); 0.3 uM compound) | % Inhibition on membrane currents evoked with 10 uM (s)-AMPA (Mean ± SD) (AMPA-R (GluA1/GluA4); 3 uM compound) | Log2FC (37.5 nM) (miR-17 [1]) | EC50 (miR-17 [1]) | EC50 (miR-17 [2]; D52B5, mouse, PKD) | EC50 (miR-17 [3]; HK-2, human, Normal) | EC50 (miR-17 [3]; WT9-7, human, PKD) | miPSA Displacement Score, Mean (miR-17 [4]; single dose 3 mg/kg) | miPSA Displacement Score, Mean (miR-17 [4]; single dose 30 mg/kg) | miPSA Displacement Score, Mean (miR-17 [4]; single dose 0.3 m/kg) | also measured
ASGSCMAFCFUFUMUSAS [RG-NG-1015] | > 100000 nM | 2.3% | 11% | 6.5% | 19.9% | ≥ 100000 nM | 5.6% | −0.8% | −10.3% | −7% | 16.0 ± 5.0% | 39.5 ± 5.4% | 2.51 | 22.4 nM | 82.4 nM | 55.6 nM | 21.2 nM | 2.562 | 2.718 | 2.238 | functional antagonism towards AMPA-R relative to RGLS4326 (AMPA-R (GluA1/GluA4); in words): reduced functional antagonism towards AMPA-R; EC50 (miR-17 [2]; mIMCD3, mouse, Normal): 168 nM; BW/KW Ratio, Mean Difference vs. PBS [5]: −48.79; Serum BUN, Mean Difference vs. PBS [5]: −20.21; Serum Creatine, Mean Difference vs. PBS [5]: −0.034; Mean BW/KW Ratio [5]: 16.83; Mean Serum BUN [5]: 22.26; Mean Serum Creatine [5]: 0.1279; CNS-related findings noted (mice; SC 2000 mg/kg, Single): No; CNS-related findings noted (mice; SC 100, 450, 2000 mg/kg/dose, QDx4): No; CNS toxicity in high-dose mouse toxicity studies (mice): no CNS-toxicity were observed
ASGSCMAFCFUFUMUSGS [RGLS4326, reference compound] | 270 nM | 31.5% | 73.1% | 93.6% | 96.8% | 1610 nM | 99.7% | −0.1% | 40.8% | 83.5% | 46.9 ± 9.8% | 87.4 ± 7.9% | 2.70 | 18.5 nM | 92.8 nM | 47.8 nM | 17.3 nM | 2.247 | 2.362 | 1.846 | IC50 (AMPA-R; Experiment #1): 700 nM; % Inhibition @ 0.1 uM (AMPA-R; Experiment #1, 0.1 uM): 17.6%; % Inhibition @ 1 uM (AMPA-R; Experiment #1, 1 uM): 55.5%; % Inhibition @ 10 uM (AMPA-R; Experiment #1, 10 uM): 93%; % Inhibition @ 100 uM (AMPA-R; Experiment #1, 100 uM): 104.1%; IC50 (AMPA-R; Experiment #3): 780 nM; % Inhibition @ 0.1 uM (AMPA-R; Experiment #3, 0.1 uM): 14.6%; % Inhibition @ 1 uM (AMPA-R; Experiment #3, 1 uM): 55.8%; % Inhibition @ 10 uM (AMPA-R; Experiment #3, 10 uM): 89%; % Inhibition @ 100 uM (AMPA-R; Experiment #3, 100 uM): 97.2%; 50% inhibitory concentration (IC50) based on ligand binding (AMPA glutamate receptor): 14.2 µg/mL; IC50 (AMPA glutamate receptor; read-out: 50% inhibitory concentration (IC50) based on ligand binding): 4600 nM; BW/KW Ratio, Mean Difference vs. PBS [5]: −48.8; Serum BUN, Mean Difference vs. PBS [5]: −20.06; Serum Creatine, Mean Difference vs. PBS [5]: −0.03463; Mean BW/KW Ratio [5]: 16.81; Mean Serum BUN [5]: 22.41; Mean Serum Creatine [5]: 0.1273; CNS toxicity in high-dose mouse toxicity studies (mice): ataxia, lethargy, and in the case of RGLS4326, unconsciousness at the highest dose
